Experimental data: ChEMBL document CHEMBL5653602, “Biochemical characterization of GSK1070916, a potent and selective inhibitor of Aurora B and Aurora C kinases with an extremely long residence time1” (Biochem J, 2009)
The source made the active and inactive calls. The calls are words filed in the database; no cut-off is given here.

Legend:
[1] = target: T1, Aurora kinase B/Inner centromere protein (Homo sapiens) (UniProt Q96GD4+Q9NQS7); conditions: dose 100.0 nM, time 60.0 min
[2] = target: Serine/threonine-protein kinase SIK1 (Homo sapiens, UniProt P57059); experiment: Inhibition of SIK (unknown origin)
Angiopoietin-1 receptor = Angiopoietin-1 receptor (Homo sapiens, UniProt Q02763); experiment: Inhibition of TIE2 (unknown origin)
[3] = target: T1, Aurora kinase B/Inner centromere protein (Homo sapiens); conditions: dose 100.0 nM, time 60.0 min; remark: listed apart in the source
Aurora-C/INCENP [4] = target: T2, Aurora-C/INCENP (Homo sapiens, UniProt Q9NQS7+Q9UQB9); experiment: Binding affinity to human AurC/INCENP assessed as inhibition constant using aurora sox peptide as substrate incubated for 60 mins in presence of ATP by fluorescence based assay; type: protein-complex assay
[5] = target: T3, Aurora kinase B/Inner centromere protein (Homo sapiens, UniProt Q96GD4); experiment: Binding affinity to human AurB/INCENP assessed as inhibition constant using aurora sox peptide as substrate incubated for 60 mins in presence of ATP by fluorescence based assay; type: protein-complex assay
[6] = target: Vascular endothelial growth factor receptor 1 (Homo sapiens, UniProt P17948); experiment: Inhibition of FLT1 (unknown origin)
Aurora-C/INCENP [7] = target: T2, Aurora-C/INCENP; experiment: Inhibition of human AurC/INCENP in PBS using Biotin-Ahx-RARRRLSFFFFAKKK-NH2 as substrate incubated for 30 mins in presence of ATP; type: protein-complex assay
[8] = target: T3, Aurora kinase B/Inner centromere protein; experiment: Inhibition of human AurB/INCENP in PBS using Biotin-Ahx-RARRRLSFFFFAKKK-NH2 as substrate incubated for 30 mins in presence of ATP; type: protein-complex assay
[9] = target: Aurora-C/INCENP (Homo sapiens) (UniProt Q9UQB9+Q9NQS7); conditions: dose 100.0 nM, time 60.0 min
[10] = target: T1, Aurora kinase B/Inner centromere protein (Homo sapiens)
Description: Binding affinity to human AurB/INCENP assessed as dissociation half life

T3 sequence (Q96GD4 whole entry): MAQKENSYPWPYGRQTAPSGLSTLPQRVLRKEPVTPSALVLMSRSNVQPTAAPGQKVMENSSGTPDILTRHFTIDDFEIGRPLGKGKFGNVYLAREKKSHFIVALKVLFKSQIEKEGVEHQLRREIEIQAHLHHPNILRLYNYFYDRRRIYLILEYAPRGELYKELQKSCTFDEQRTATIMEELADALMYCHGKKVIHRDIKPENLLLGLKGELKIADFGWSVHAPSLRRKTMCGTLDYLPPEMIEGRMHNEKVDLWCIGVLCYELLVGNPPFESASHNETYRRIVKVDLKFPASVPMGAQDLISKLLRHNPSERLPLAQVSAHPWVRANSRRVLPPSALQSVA
T3 sequence (Q9NQS7 whole entry, further chain): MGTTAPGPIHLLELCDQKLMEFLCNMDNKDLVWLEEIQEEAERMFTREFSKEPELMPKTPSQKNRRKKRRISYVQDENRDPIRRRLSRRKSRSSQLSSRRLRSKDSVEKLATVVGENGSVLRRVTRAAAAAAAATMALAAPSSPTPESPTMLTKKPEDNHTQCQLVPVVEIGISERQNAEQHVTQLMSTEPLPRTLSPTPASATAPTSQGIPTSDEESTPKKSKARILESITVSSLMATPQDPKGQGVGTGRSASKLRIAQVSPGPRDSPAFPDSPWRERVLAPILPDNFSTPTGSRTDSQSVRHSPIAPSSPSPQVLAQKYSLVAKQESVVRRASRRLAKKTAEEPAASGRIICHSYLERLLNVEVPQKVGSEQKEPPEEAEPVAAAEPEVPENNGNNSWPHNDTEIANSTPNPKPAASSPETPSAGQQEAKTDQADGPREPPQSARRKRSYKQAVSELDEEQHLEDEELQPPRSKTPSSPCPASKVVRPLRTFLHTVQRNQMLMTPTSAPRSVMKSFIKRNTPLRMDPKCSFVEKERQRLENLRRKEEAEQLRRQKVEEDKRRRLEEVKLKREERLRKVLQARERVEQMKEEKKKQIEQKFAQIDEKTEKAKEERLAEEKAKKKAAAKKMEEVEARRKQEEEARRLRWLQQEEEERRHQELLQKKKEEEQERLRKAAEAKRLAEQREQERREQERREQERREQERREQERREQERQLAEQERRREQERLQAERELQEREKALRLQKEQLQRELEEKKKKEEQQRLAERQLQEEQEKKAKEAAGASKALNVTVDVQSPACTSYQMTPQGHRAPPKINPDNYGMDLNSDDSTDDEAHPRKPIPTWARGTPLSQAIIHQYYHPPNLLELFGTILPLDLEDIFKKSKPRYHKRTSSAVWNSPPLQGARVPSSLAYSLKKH
T2 sequence (Q9UQB9 whole entry): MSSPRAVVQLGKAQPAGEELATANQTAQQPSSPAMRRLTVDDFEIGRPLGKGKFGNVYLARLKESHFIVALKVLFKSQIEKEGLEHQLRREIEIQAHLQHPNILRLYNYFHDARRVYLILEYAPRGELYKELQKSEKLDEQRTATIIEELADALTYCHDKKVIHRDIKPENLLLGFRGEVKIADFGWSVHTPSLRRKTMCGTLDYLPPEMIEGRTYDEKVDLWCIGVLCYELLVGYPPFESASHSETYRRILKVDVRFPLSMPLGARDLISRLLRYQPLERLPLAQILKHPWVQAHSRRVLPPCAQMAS
T2 sequence (Q9NQS7 whole entry): as the sequence (Q9NQS7 whole entry, further chain) above
Serine/threonine-protein kinase SIK1, sequence (P57059 whole entry): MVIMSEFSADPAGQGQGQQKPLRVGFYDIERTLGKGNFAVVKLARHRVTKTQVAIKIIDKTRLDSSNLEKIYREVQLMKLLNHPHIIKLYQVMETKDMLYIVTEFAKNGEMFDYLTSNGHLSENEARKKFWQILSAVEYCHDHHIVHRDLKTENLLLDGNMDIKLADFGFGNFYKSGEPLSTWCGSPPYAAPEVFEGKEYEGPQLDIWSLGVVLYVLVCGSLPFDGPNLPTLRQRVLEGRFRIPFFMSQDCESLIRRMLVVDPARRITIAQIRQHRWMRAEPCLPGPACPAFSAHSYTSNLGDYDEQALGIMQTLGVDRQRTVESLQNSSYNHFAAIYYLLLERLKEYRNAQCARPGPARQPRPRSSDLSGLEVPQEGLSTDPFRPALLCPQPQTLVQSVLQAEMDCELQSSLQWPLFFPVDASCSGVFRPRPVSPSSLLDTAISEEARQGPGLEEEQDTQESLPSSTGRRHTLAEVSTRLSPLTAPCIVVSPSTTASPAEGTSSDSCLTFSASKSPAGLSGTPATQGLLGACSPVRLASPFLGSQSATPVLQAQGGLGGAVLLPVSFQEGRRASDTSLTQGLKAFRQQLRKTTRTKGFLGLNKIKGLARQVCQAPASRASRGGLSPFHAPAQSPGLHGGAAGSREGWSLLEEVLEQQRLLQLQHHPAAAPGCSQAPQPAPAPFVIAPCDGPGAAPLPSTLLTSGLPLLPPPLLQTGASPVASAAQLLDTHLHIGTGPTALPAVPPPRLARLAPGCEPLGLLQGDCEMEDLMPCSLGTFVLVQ
Vascular endothelial growth factor receptor 1, sequence (P17948 whole entry): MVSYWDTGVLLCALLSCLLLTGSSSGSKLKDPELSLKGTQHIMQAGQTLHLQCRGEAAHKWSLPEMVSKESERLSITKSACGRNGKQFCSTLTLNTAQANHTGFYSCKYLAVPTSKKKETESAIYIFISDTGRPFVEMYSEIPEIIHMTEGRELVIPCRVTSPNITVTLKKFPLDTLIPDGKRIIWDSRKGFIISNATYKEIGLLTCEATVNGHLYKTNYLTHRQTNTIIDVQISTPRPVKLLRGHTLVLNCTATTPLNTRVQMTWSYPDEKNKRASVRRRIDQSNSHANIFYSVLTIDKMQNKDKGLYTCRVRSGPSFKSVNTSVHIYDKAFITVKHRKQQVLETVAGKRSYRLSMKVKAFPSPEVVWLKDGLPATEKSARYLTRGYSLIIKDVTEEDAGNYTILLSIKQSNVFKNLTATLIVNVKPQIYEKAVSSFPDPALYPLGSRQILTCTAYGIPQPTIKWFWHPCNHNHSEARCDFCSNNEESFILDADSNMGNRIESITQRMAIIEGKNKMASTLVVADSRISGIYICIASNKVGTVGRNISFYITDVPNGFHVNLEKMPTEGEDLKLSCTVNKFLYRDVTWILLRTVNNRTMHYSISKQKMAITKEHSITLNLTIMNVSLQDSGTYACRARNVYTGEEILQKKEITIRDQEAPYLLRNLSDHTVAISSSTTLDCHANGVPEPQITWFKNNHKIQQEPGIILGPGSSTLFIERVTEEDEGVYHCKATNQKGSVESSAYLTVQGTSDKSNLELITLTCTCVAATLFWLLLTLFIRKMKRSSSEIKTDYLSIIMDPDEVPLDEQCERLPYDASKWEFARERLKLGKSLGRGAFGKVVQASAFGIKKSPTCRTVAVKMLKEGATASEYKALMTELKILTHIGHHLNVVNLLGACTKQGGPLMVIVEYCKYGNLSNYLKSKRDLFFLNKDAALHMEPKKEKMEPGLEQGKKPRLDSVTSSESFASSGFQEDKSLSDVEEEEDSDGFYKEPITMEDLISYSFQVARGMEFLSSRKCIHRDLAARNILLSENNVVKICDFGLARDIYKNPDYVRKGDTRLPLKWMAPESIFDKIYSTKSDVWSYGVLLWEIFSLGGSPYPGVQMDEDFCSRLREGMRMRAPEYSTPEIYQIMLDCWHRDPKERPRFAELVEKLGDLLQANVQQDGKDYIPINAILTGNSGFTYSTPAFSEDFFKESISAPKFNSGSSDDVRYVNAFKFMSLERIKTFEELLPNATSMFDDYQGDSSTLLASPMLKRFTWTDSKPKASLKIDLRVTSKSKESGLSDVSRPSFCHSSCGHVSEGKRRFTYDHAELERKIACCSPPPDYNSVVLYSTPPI
Angiopoietin-1 receptor, sequence (Q02763 whole entry): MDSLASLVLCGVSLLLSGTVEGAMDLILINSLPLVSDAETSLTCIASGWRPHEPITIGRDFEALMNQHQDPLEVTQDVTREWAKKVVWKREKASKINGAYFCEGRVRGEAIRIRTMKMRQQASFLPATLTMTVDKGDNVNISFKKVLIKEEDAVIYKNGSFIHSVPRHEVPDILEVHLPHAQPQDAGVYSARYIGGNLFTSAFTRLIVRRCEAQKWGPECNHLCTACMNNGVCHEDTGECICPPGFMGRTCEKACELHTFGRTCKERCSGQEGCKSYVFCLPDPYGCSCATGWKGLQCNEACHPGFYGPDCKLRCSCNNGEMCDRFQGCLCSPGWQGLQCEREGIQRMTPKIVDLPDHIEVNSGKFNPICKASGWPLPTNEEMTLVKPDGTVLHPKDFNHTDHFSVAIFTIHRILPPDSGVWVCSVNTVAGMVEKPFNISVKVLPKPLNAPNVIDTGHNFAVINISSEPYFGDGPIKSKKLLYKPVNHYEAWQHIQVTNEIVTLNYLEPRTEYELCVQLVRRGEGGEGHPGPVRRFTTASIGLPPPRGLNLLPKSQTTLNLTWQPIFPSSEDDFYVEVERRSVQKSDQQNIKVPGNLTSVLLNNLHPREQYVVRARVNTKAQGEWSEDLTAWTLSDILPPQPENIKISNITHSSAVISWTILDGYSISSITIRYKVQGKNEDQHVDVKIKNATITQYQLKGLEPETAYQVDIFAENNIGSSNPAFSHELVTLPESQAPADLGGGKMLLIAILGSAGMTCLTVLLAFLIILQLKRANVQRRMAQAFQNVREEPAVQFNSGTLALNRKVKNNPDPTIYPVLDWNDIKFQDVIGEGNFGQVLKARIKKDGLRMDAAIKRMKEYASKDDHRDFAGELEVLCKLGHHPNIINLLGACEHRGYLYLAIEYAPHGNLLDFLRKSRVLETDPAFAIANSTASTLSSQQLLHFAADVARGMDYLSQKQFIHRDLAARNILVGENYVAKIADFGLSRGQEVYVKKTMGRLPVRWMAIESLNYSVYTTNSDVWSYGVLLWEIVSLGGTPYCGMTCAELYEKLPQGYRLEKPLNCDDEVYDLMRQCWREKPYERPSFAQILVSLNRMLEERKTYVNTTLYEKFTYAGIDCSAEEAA

Row | T1/2 [10] [min] | Structure (SMILES) | T1/2 [1] [min] | IC50 [2] [nM] | IC50 (Angiopoietin-1 receptor) [nM] | inhibition [3] | Ki (Aurora-C/INCENP [4]) [nM] | Ki [5] [nM] | IC50 [6] [nM] | IC50 (Aurora-C/INCENP [7]) [nM] | IC50 [8] [nM] | T1/2 [9] [min]
1 |  | CCn1cc(-c2ccnc3[nH]c(-c4cccc(CN(C)C)c4)cc23)c(-c2ccc(NC(=O)N(C)C)cc2)n1 [GSK-1070916] | > 480 | 70 | 59 | Active | 1.45 | 0.38 | 42 | 6.5 | 3.5 | 270
2 | 25 | Cc1cc(Nc2cc(N3CCN(C)CC3)nc(Sc3ccc(NC(=O)C4CC4)cc3)n2)n[nH]1 |  |  |  |  |  |  |  |  |  | 
3 | 15 | CCN(CCCOc1ccc2c(Nc3cc(CC(=O)Nc4cccc(F)c4)[nH]n3)ncnc2c1)CCOP(=O)(O)O |  |  |  |  |  |  |  |  |  | 
